The values below come from patent US6432879B1, “Substituted phenyl uracils” (Bayer Aktiengesellschaft, priority 1997, dated 2002).

The subject of data set [1] is weeds. Put plainly: Pre-emergence test, action against weeds. In kind it is in vivo. The settings on record: soil sprayed about 24 hours after sowing, rated after three weeks vs untreated control. The procedure:
(§1) Solvent: 5 parts by weight of acetone
(§2) Emulsifier: 1 part by weight of alkylaryl polyglycol ether
To produce a suitable preparation of active compounds, 1 part by weight of active compound is mixed with the stated amount of solvent, the stated amount of emulsifier is added and the concentrate is diluted with water to the desired concentration.
Seeds of the test plants are sown in normal soil. After about 24 hours, the soil is sprayed with the preparation of active compounds such that the particular amounts of active compound desired are applied per unit area. The concentration of the spray liquor is chosen so that the particular amounts of active compound desired are applied in 1000 l of water/ha.
(§3) After three weeks, the degree of damage to the plants is rated in % damage in comparison to the development of the untreated control.
(§4) 0%=no effect (like untreated control)

The test system of data set [2] is weeds. Put plainly: Post-emergence test, activity against weeds. In kind it is in vivo. The settings on record: test plants of 5-15 cm sprayed, rated after three weeks vs untreated control. The procedure:
as §1, §2
To produce a suitable preparation of active compound, 1 part by weight of active compound is mixed with the stated amount of solvent, the stated amount of emulsifier is added and the concentrate is diluted with water to the desired concentration.
Test plants of a height of 5-15 cm are sprayed with the preparation of active compound such that the particular amounts of active compound desired are applied per unit area. The concentration of the spray liquor is chosen so that the particular amounts of active compound desired are applied in 1000 l of water/ha.
as §3, §4

In turn, `O=c1cc(C(F)(F)F)[nH]c(=O)n1-c1ccc(OCc2ccc(Cl)cc2)cc1[N+](=O)[O-]` [Example 1, 1-[4-(4-chloro-phenylmethoxy)-2nitrophenyl]-4-trifluoromethyl-3,6-dihydro-2,6-dioxo-1(2H)-pyrimidin] registered a melting point of 237 °C. For `O=c1cc(C(F)(F)F)[nH]c(=O)n1-c1ccc(OCc2ccc(Cl)nc2)cc1[N+](=O)[O-]` [Example 2, 1-[4-(2-chloro-pyridin-5-yl-methoxy)-2-nitrophenyl]-4-trifluoromethyl-3,6-dihydro-2,6-dioxo-1(2H)-pyrimidine], the melting point was found to be 209 °C.

Regarding `Cn1c(C(F)(F)F)cc(=O)n(-c2ccc(OCc3ccc(Cl)cc3)cc2[N+](=O)[O-])c1=O` [Example 3, 1-[4-(4-chloro-phenylmethoxy)-2-nitrophenyl]-3-methyl-4-trifluoromethyl-3,6-dihydro-2,6-dioxo-1(2H)-pyrimidine], the melting point was found to be 159 °C. The “action against weeds (degree of damage to the plants)” value (shortened to “action against weeds”) in data set [1] was “strong action”. Regarding `Nn1c(C(F)(F)F)cc(=O)n(-c2ccc(OCc3ccc(Cl)nc3)cc2[N+](=O)[O-])c1=O` [Example 4, 3-amino-1-[4-(2-chloro-pyridin-5-yl-methoxy)-2-nitro-phenyl]-4-trifluoromethyl-3,6-dihydro-2,6-dioxo-1(2H)-pyrimidine], the melting point was 193 °C. The compound `Cn1c(C(F)(F)F)cc(=O)n(-c2ccc(OCc3ccc(Cl)cc3)cc2N)c1=O` [Example 5, 1-[2-amino-4-(4-chloro-phenylmethoxy)-phenyl]-3-methyl-4-trifluoromethyl-3,6-dihydro-2,6-dioxo-1(2H)-pyrimidine] displayed a melting point of 166 °C. Also, the “action against weeds” value in data set [1] is listed as “strong action”. Also, the “activity against weeds (degree of damage to the plants)” value in data set [2] is listed as “strong activity”. As to `CC(=O)Nc1cc(OCc2ccc(Cl)cc2)ccc1-n1c(=O)cc(C(F)(F)F)n(C)c1=O` [Example 7, 1-[2-acetylamino-4-(4-chloro-phenylmethoxy)-phenyl]-3-methyl-4-trifluoromethyl-3,6-dihydro-2,6-dioxo-1(2H)-pyrimidine], the melting point came to 230 °C. For the same compound, the “action against weeds” value in data set [1] was “strong action”. In addition, the “activity against weeds (degree of damage to the plants)” value in data set [2] is listed as “strong activity”.

In general, melting point refers to the temperature, or range, at which the solid turns liquid.
